From patent US20240174618A1, “SUBSTITUTED (2-HETEROARYLOXYPHENYL)SULFONATES, SALTS THEREOF AND THEIR USE AS HERBICIDAL AGENTS” (Bayer Aktiengesellschaft, priority 2021, published 2024) come the findings set out here.

What all share (type): in vivo
In experiment [1] the test system is Digitaria sanguinalis (DIGSA). As to the kind of experiment: A. Herbicidal pre-emergence efficacy, DIGSA. The note with it: scored visually after about 3 weeks vs untreated controls. Summed up: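 Pre-emergence soil-surface spray in sandy loam pots, WP/EC in water plus 0.5% additive, 600 L/ha. Visual % damage rating after about 3 weeks in greenhouse vs. untreated; 0% = control-like, 100% = dead plants. Rates up to 1280 g/ha.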

Experiment [2] has as its system Abutilon theophrasti (ABUTH). Kind of experiment: B. Herbicidal post-emergence efficacy, ABUTH. The note with it: rated visually after about 3 weeks. In a few lines:
(§1)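 Weeds grown in sandy loam in greenhouse pots, sprayed at one-leaf stage (2–3 weeks after sowing) with WP or EC formulations as aqueous suspension/emulsion plus 0.5% additive at 600 L/ha water, rates up to 1280 g/ha. Visual efficacy rated about 3 weeks later versus untreated controls (0% = like control, 100% = dead).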

Experiment [3] relates to Digitaria sanguinalis (DIGSA). As to the kind of experiment: B. Herbicidal post-emergence efficacy, DIGSA. The note with it: rated visually after about 3 weeks. Summed up: as §1
A further experiment has as its system Veronica persica (VERPE). As to the kind of experiment: B. Herbicidal post-emergence efficacy, VERPE. Summed up: as §1
Experiment [4] concerns Echinochloa crus-galli (ECHCG). Kind of experiment: C. Herbicidal pre-emergence efficacy, ECHCG. The note with it: scored after about 3 weeks. In a few lines: (§2)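 Pre-emergence test: formulated compounds sprayed as aqueous suspension or emulsion with 0.5% additive at 600 l/ha onto soil covering sown seeds, at rates corresponding to 320 g/ha or less. After about 3 weeks in greenhouse, efficacy scored visually as percent versus untreated controls (100% = plants dead).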

Experiment [5] concerns Polygonum convolvulus (POLCO). As to the kind of experiment: C. Herbicidal pre-emergence efficacy, POLCO. The note with it: scored after about 3 weeks. Summed up:
as §2

Experiment [6] has as its system Pharbitis purpurea (PHBPU). Kind of experiment: E. Herbicidal post-emergence efficacy, PHBPU. Summed up: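 Greenhouse weeds were treated post-emergence at the one-leaf stage, 2-3 weeks after sowing in sandy loam, with WP or EC formulations sprayed as aqueous suspension/emulsion plus 0.5% additive at 600 l/ha, at 320 g/ha or less. Efficacy was rated visually after about 3 weeks versus untreated controls (100% = dead, 0% = like control).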

For a further experiment, the system named is Kochia scoparia (KCHSC). Kind of experiment: C. Herbicidal pre-emergence efficacy, KCHSC. The note with it: application rate 320 g/ha. In a few lines: as §2

Regarding `CC(C)CCS(=O)(=O)Oc1ccccc1Oc1ncc(Cl)cn1` [Example I-25], the “Pre-emergence efficacy against DIGSA” value in experiment [1] (80 g/ha) is listed as 90%; in experiment [1] (320 g/ha) it was 100%; in experiment [1] (1280 g/ha), 100%. The “Post-emergence efficacy against ABUTH in %” value in experiment [2] (320 g/ha) is reported as 90%; in experiment [2] (1280 g/ha) it was 100%. Besides, the figures for the “Post-emergence efficacy against DIGSA in %” value in experiment [3] (320 g/ha) and in experiment [3] (1280 g/ha) were 90% and 100%, respectively. The “Post-emergence efficacy against VERPE” value in the experiment on Veronica persica (VERPE) (80 g/ha), in the experiment with Veronica persica (VERPE) (320 g/ha) and in the experiment on Veronica persica (VERPE) (1280 g/ha) was 100% throughout. Moreover, the “Pre-emergence efficacy against ECHCG” value in experiment [4] (80 g/ha) and in experiment [4] (320 g/ha) was 100% each time. Moreover, the “Pre-emergence efficacy against POLCO” value in experiment [5] (80 g/ha) was determined as 80%; in experiment [5] (320 g/ha), 90%. The “Post-emergence efficacy against PHBPU in %” value in experiment [6] (application rate 80 g/ha) is given as 80%; in experiment [6] (application rate 320 g/ha), 90%.

For the molecule `CCCCCS(=O)(=O)Oc1ccccc1Oc1ncc(Cl)cn1` [Example I-24], the “Pre-emergence efficacy against DIGSA” value in experiment [1] (320 g/ha) and in experiment [1] (1280 g/ha) was 100% throughout. The “Post-emergence efficacy against ABUTH in %” value in experiment [2] (320 g/ha) and in experiment [2] (1280 g/ha) was 90% in each case. For the same molecule, the “Post-emergence efficacy against DIGSA in %” value in experiment [3] (320 g/ha) and in experiment [3] (1280 g/ha) was 90% in each case. For the same molecule, the “Post-emergence efficacy against VERPE” value in the experiment with Veronica persica (VERPE) (80 g/ha) was 90%; in the experiment on Veronica persica (VERPE) (320 g/ha), 100%; in the experiment with Veronica persica (VERPE) (1280 g/ha), 100%. Further, the “Pre-emergence efficacy against ECHCG” value in experiment [4] (320 g/ha) is recorded as 100%. Also, the “Pre-emergence efficacy against POLCO” value in experiment [5] (320 g/ha) worked out at 80%. Moreover, the “Post-emergence efficacy against PHBPU in %” value in experiment [6] (application rate 320 g/ha) came to 80%.

Turning to `O=S(=O)(CC1CC1)Oc1ccccc1Oc1ncc(Cl)cn1` [Example I-23], the results for the “Pre-emergence efficacy against DIGSA” value in experiment [1] (80 g/ha), in experiment [1] (320 g/ha) and in experiment [1] (1280 g/ha) were 90%, 100% and 100%, respectively. For the same molecule, the “Post-emergence efficacy against ABUTH in %” value in experiment [2] (320 g/ha) is recorded as 90%; in experiment [2] (1280 g/ha), 100%. The “Post-emergence efficacy against DIGSA in %” value stood at 90% in experiment [3] (320 g/ha) and 100% in experiment [3] (1280 g/ha). Also, the entries for the “Post-emergence efficacy against VERPE” value in the experiment on Veronica persica (VERPE) (80 g/ha), in the experiment with Veronica persica (VERPE) (320 g/ha) and with Veronica persica (VERPE) (1280 g/ha) were 90%, 100% and 100%, respectively. Also, the “Pre-emergence efficacy against ECHCG” value in experiment [4] (80 g/ha) and in experiment [4] (320 g/ha) was 100% each time. The “Pre-emergence efficacy against POLCO” value in experiment [5] (80 g/ha) and in experiment [5] (320 g/ha) was 100% throughout. The “Post-emergence efficacy against PHBPU in %” value in experiment [6] (application rate 320 g/ha) worked out at 100%.

Consider `O=S(=O)(CCCCl)Oc1c(F)cccc1Oc1ncc(Cl)cn1` [Example I-14], for which the “Pre-emergence efficacy against DIGSA” value in experiment [1] (80 g/ha), in experiment [1] (320 g/ha) and in experiment [1] (1280 g/ha) was 100% each time. In addition, the “Post-emergence efficacy against ABUTH in %” value in experiment [2] (80 g/ha) is listed as 90%; in experiment [2] (320 g/ha), 100%; in experiment [2] (1280 g/ha) it was 100%. Besides, the “Post-emergence efficacy against DIGSA in %” value in experiment [3] (320 g/ha) and in experiment [3] (1280 g/ha) was 100% throughout. The “Post-emergence efficacy against VERPE” value in the experiment with Veronica persica (VERPE) (80 g/ha), with Veronica persica (VERPE) (320 g/ha) and with Veronica persica (VERPE) (1280 g/ha) was 100% in each case. For the same molecule, the “Pre-emergence efficacy against ECHCG” value in experiment [4] (80 g/ha) and in experiment [4] (320 g/ha) was 100% in each case. Moreover, the “Pre-emergence efficacy against POLCO” value in experiment [5] (80 g/ha) amounted to 90%; in experiment [5] (320 g/ha), 100%. The “Post-emergence efficacy against PHBPU in %” value in experiment [6] (application rate 80 g/ha) and in experiment [6] (application rate 320 g/ha) was 100% in each case.

In the case of `C=CCS(=O)(=O)Oc1ccccc1Oc1ncc(Cl)cn1` [Example I-36], the “Pre-emergence efficacy against DIGSA” value in experiment [1] (320 g/ha) is listed as 90%; in experiment [1] (1280 g/ha), 100%. The entries for the “Post-emergence efficacy against VERPE” value in the experiment with Veronica persica (VERPE) (320 g/ha) and in the experiment on Veronica persica (VERPE) (1280 g/ha) were 90% and 100%, respectively. In addition, the “Pre-emergence efficacy against ECHCG” value in experiment [4] (320 g/ha) is 80%. For the same molecule, the “Pre-emergence efficacy against POLCO” value in experiment [5] (320 g/ha) is 90%. Also, the “Pre-emergence efficacy against KCHSC in %” value in the experiment with Kochia scoparia (KCHSC) turned out to be 100%.
